Measurements: patent publication US6083677A, “Photographic element containing yellow dye-forming photographic coupler” (Eastman Kodak Company, priority 1998, dated 2000)

Key:
[1] = Spectrophotometric response of dyes in dilute acetonitrile solution; format: physicochemical; details: for Extinction: in M-1 cm-1 (unit assumed)
From the text: As mentioned previously, many characteristics of a photographic image depend upon the spectral response of the dyes forming that image. The greater the molar extinction of an image-forming dye the less silver is needed to produce that dye; lower silver laydowns may lead to sharper photographic images. The color of a dye depends upon the position of its maximum light absorption (λ-max). With yellow dyes, the deeper (more bathochromic) the λmax of the dye the more orange the color of the dye. Orange dyes cannot be employed to effectively reproduce bright lemon yellows, thus lighter yellow dyes arc preferred for better color reproduction. Finally, the ideal yellow dye absorbs only light in the blue portion of the visible spectrum; yellow dyes that absorb substantial amounts of green light appear desaturated and therefore yield poorer color reproduction. The bathochromic (long wavelength side) one-half bandwidth (B1/2BW) is a good measure of the degree of unwanted absorption of a yellow dye. The B1/2BW is the distance on the long wavelength side of the dye's spectral response curve, in nanometers, from the λmax to the wavelength of 1/2 the maximum absorption. The smaller the B1/2BW distance, the more sharp-cutting is the spectral response of a dye and the better the color reproduction available from the dye.
^a. Spectrophotometric data derived from dilute acetonitrile solution
of chromatographically homogenous dyes; see Table 3 for invention dye

[2] = Accelerated solution test of acid hydrolysis of yellow dyes (HPLC); format: physicochemical; design: kobs rate of hydrolysis: unit not given here; details: 1 mM dye in 6% Triton X100, pH 2.0, phosphate buffer, 50° C.
Method: The hydrolytic stability or acid catalyzed decomposition of yellow azomethine dyes is an important pathway in the degradation of photographic images. It is believed that the stability of yellow dyes toward acidic hydrolysis is predictive of their stability in color photographic images.
The rates of hydrolysis of a variety of dyes have been measured using an accelerated solution test format. The dyes (1.0 mM dye in 6% Triton X-100®) in buffered acidic solutions (pH=2.0, μ=0.2, phosphate buffer) were held at 50° C. The rates of dye destruction were monitored using standard HPLC procedures.
^a. 1 mM dye in 6% Triton X100 ® (60 g/l octylphenoxy
polyethoxyethanols, Avg M.W. = 646) solution in pH 2.0, […],
phosphate buffer at 50° C.

Row | SMILES | B1/2BW (bathochromic one-half bandwidth) [1] | λmax [1] | Extinction [1] | kobs rate of hydrolysis [2] | t1/2 - time for 1/2 the dye to hydrolyze [2]
1 | CCCCc1ccc(NC(=O)C(=Nc2ccc(N(CC)CCNS(C)(=O)=O)cc2C)C(=O)c2ccn(-c3ccccc3)c2)cc1 [Cmp-1, reference compound] | 42 nm | 430 nm | 12,800 | – | –
2 | CCCCc1ccc(NC(=O)C(=Nc2ccc(N(CC)CCNS(C)(=O)=O)cc2C)C(=O)c2cn(-c3ccccc3)cc2C)cc1 [Cmp-2, reference compound] | 40 nm | 428 nm | 13,900 | – | –
3 | CCCCc1ccc(NC(=O)C(=Nc2ccc(N(CC)CCNS(C)(=O)=O)cc2C)C(=O)c2cccn2-c2ccccc2)cc1 [Cmp-3, reference compound] | 40 nm | 426 nm | 13,700 | – | –
4 | CCCCc1ccc(NC(=O)C(=Nc2ccc(N(CC)CCNS(C)(=O)=O)cc2C)C(=O)c2ccn(-c3ccccc3)c2C)cc1 [Cmp-4, reference compound] | 40 nm | 434 nm | 12,600 | – | –
5 | CCCCCCCCCCCCCCCCCCOc1ccc(S(=O)(=O)Nc2ccccc2Cl)cc1NC(=O)C(=Nc1ccc(N(CC)CCNS(C)(=O)=O)cc1C)C(=O)N1CCc2ccccc21 [Cmp-6, reference compound] | – | – | – | 2.48 | 78 h
6 | CCCCc1ccc(NC(=O)C(=Nc2ccc(N(CC)CCNS(C)(=O)=O)cc2C)C(=O)C(C)(C)C)cc1 [Cmp-7, reference compound] | 42 nm | 428 nm | 11,800 | – | –
7 | CCCCCCCCCCCCOC(=O)c1ccc(Cl)c(NC(=O)C(=Nc2ccc(N(CC)CCNS(C)(=O)=O)cc2C)C(=O)C(C)(C)C)c1 [Cmp-10, reference compound] | – | – | – | 5.57 | 35 h
8 | CCCCCCCCCCCCCCCCS(=O)(=O)Nc1ccc(Cl)c(NC(=O)C(=Nc2ccc(N(CC)CCNS(C)(=O)=O)cc2C)C(=O)C(C)(C)C)c1 [Cmp-11, reference compound] | – | – | – | 12.1 | 16 h
9 | CCCCc1ccc(NC(=O)C(=Nc2ccc(N(CC)CCNS(C)(=O)=O)cc2C)C(=O)c2c(-c3ccccc3)n(C)c3ccccc23)cc1 [Coupler D-1] | 32 nm | 426 nm | 19,700 | – | –
10 | CCCCc1ccc(NC(=O)C(=Nc2ccc(N(CC)CCNS(C)(=O)=O)cc2C)C(=O)c2c(C)[nH]c3ccccc23)cc1 [Coupler D-2] | 37 nm | 426 nm | 10,000 | – | –
11 | CCCCc1ccc(NC(=O)C(=Nc2ccc(N(CC)CCNS(C)(=O)=O)cc2C)C(=O)c2cn(C)c3ccccc23)cc1 [Coupler D-3] | 39 nm | 428 nm | 13,500 | – | –
12 | CCCCc1ccc(NC(=O)C(=Nc2ccc(N(CC)CCNS(C)(=O)=O)cc2C)C(=O)c2c(C)n(C)c3ccccc23)cc1 [Coupler D-4] | 37 nm | 428 nm | 16,200 | – | –
13 | CCCCc1ccc(NC(=O)C(=Nc2ccc(N(CC)CCNS(C)(=O)=O)cc2C)C(=O)c2c(C3CCCCC3)n(C)c3ccccc23)cc1 [Coupler D-5] | 37 nm | 428 nm | 16,800 | – | –
14 | CCCCc1ccc(NC(=O)C(=Nc2ccc(N(CC)CCNS(C)(=O)=O)cc2C)C(=O)c2c3n(c4ccccc24)CCCC3)cc1 [Coupler D-6] | 38 nm | 426 nm | 17,300 | – | –
15 | CCCCc1ccc(NC(=O)C(=Nc2ccc(N(CC)CCNS(C)(=O)=O)cc2C)C(=O)c2c(-c3ccccc3)[nH]c3ccccc23)cc1 [Coupler D-7] | 35 nm | 430 nm | 14,100 | – | –
16 | CCCCc1ccc(NC(=O)C(=Nc2ccc(N(CC)CCNS(C)(=O)=O)cc2C)C(=O)c2c(-c3ccccc3)n(-c3ccccc3)c3ccccc23)cc1 [Coupler D-8] | 33 nm | 426 nm | 16,600 | – | –
17 | CCCCc1ccc(NC(=O)C(=Nc2ccc(N(CC)CCNS(C)(=O)=O)cc2C)C(=O)c2c3c(n(C)c2-c2ccccc2)CCCC3)cc1 [Coupler D-9] | 34 nm | 422 nm | 19,300 | – | –
18 | CCCCc1ccc(NC(=O)C(=Nc2ccc(N(CC)CCNS(C)(=O)=O)cc2C)C(=O)c2c3c(n(C)c2-c2ccccc2)CCC3)cc1 [Coupler D-10] | 35 nm | 424 nm | 17,700 | – | –
19 | CCCCc1ccc(NC(=O)C(=Nc2ccc(N(CC)CCNS(C)(=O)=O)cc2C)C(=O)c2c(-c3ccccc3)n(C)c3ccc(OC)cc23)cc1 [Coupler D-11] | 33 nm | 426 nm | 21,300 | – | –
20 | CCCCc1ccc(NC(=O)C(=Nc2ccc(N(CC)CCNS(C)(=O)=O)cc2C)C(=O)c2c(-c3ccccc3)n(C)c3ccc(C#N)cc23)cc1 [Coupler D-12] | 33 nm | 430 nm | 20,100 | – | –
21 | CCCCc1ccc(NC(=O)C(=Nc2ccc(N(CC)CCNS(C)(=O)=O)cc2C)C(=O)c2c(-c3ccccc3)oc3ccccc23)cc1 [Coupler D-13] | 47 nm | 444 nm | 13,400 | – | –
22 | CCCCc1ccc(NC(=O)C(=Nc2ccc(N(CC)CCNS(C)(=O)=O)cc2C)C(=O)c2c(-c3ccccc3)c3ccccc3n2C)cc1 [Coupler D-14] | 46 nm | 438 nm | 11,900 | – | –
23 | CCCCCCCCCCCCS(=O)(=O)c1ccc(NC(=O)C(=Nc2ccc(N(CC)CCNS(C)(=O)=O)cc2C)C(=O)c2c(-c3ccccc3)n(C)c3ccccc23)c(Cl)c1 [Coupler D-15] | – | – | – | 0.17 | 1,150 hr
24 | CCCCCCCCCCCCn1c(-c2ccccc2)c(C(=O)C(=Nc2ccc(N(CC)CCNS(C)(=O)=O)cc2C)C(=O)Nc2ccc(S(C)(=O)=O)cc2Cl)c2ccccc21 [Coupler D-16] | – | – | – | 0.38 | 500 h
25 | CCCCCCCCCCCCNS(=O)(=O)c1ccc(NC(=O)C(=Nc2ccc(N(CC)CCNS(C)(=O)=O)cc2C)C(=O)c2c(-c3ccccc3)n(C)c3ccccc23)c(Cl)c1 [Coupler D-17] | – | – | – | 0.31 | 610 h
26 | CCCCCCCCCCCCCCCCOC(=O)c1ccc(Cl)c(NC(=O)C(=Nc2ccc(N(CC)CCNS(C)(=O)=O)cc2C)C(=O)c2c(C)n(C)c3ccccc23)c1 [Coupler D-18] | – | – | – | 9.63 | 20 h
27 | CCCCCCCCCCCCCCCCOC(=O)c1ccc(Cl)c(NC(=O)C(=Nc2ccc(N(CC)CCNS(C)(=O)=O)cc2C)C(=O)c2c(C3CCCCC3)n(C)c3ccccc23)c1 [Coupler D-19] | – | – | – | 1.91 | 101 h
